Data taken from ChEMBL document CHEMBL1131957, “Structure-activity relationship of a series of diaminoalkyl substituted benzimidazole as neuropeptide Y Y1 receptor antagonists” (Bioorg Med Chem Lett, 1999).

Key:
[1] = target: T1, Neuropeptide Y receptor type 1 (Homo sapiens, UniProt P25929); test: Ability to displace [125I]-peptide YY binding to cloned human Neuropeptide Y receptor type 1 expressed in AV-12 cells; format: cell-based, AV12
T1 sequence (P25929 whole entry): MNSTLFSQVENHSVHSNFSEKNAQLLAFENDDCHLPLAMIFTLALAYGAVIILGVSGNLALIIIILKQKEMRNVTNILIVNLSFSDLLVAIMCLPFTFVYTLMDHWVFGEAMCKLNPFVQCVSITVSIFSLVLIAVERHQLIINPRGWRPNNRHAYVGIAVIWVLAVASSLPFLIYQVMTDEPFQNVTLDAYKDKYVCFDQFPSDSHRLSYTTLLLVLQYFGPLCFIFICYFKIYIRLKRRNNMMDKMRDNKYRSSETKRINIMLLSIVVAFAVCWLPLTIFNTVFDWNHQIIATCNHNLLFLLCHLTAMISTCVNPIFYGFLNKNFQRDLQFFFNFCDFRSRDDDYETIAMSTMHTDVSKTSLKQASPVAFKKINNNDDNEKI

SK-N-MC = test: Ability to antagonize 1 nM NPY''s inhibition of forskolin-stimulated cyclic AMP accumulation in SK-N-MC cells; format: functional, cell-based, Homo sapiens
[2] = target: Neuropeptide Y receptor type 4 (Homo sapiens) (UniProt P50391); test: Ability to displace [125I]-peptide YY binding to cloned human Neuropeptide Y receptor type 4 expressed in CHO cells at a concentration of 1 uM; format: cell-based
Chain of Neuropeptide Y receptor type 4 (Homo sapiens) (P50391 whole entry): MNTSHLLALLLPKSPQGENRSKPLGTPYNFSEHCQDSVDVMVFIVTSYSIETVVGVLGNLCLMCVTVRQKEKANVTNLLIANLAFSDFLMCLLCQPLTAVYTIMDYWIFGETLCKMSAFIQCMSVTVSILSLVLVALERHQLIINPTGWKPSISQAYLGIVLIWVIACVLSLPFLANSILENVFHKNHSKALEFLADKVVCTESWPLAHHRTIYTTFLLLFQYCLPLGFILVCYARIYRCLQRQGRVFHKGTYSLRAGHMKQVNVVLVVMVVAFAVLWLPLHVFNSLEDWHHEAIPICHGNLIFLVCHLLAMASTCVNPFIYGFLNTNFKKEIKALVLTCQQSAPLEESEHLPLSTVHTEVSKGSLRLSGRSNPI

[3] = target: T2, Neuropeptide Y receptor type 2 (Homo sapiens) (UniProt P49146); test: Ability to displace [125I]-peptide YY binding to cloned human Neuropeptide Y receptor type 2 expressed in CHO cells at a concentration of 1 uM; format: cell-based
T2 sequence (whole entry): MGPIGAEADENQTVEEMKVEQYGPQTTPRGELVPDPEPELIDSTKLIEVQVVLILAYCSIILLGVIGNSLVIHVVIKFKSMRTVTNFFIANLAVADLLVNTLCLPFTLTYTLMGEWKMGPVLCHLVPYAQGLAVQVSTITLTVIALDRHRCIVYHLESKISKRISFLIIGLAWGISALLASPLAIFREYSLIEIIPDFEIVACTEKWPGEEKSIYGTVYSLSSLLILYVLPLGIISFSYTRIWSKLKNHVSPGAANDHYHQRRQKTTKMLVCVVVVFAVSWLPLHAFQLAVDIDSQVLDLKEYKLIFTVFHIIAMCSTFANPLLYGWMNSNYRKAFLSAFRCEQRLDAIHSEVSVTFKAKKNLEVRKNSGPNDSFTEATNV

[4] = target: T3, Neuropeptide Y receptor type 5 (Homo sapiens) (UniProt Q15761); test: Ability to displace [125I]-peptide YY binding to cloned human Neuropeptide Y receptor type 5 expressed in CHO cells at a concentration of 1 uM; format: cell-based
T3 sequence (whole entry): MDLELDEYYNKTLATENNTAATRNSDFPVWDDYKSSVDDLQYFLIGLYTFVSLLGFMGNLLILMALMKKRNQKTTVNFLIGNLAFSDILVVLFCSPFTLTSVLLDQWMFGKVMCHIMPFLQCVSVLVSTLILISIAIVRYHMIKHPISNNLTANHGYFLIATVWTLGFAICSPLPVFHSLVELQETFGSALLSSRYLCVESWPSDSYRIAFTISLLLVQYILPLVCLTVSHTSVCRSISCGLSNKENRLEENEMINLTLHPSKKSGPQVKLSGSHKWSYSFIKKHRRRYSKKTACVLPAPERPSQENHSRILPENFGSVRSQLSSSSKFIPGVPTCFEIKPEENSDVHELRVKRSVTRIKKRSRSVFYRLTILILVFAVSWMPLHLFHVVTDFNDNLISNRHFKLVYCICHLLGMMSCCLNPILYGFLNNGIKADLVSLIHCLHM

Compound	Ki [1] [nM]	other results
c1ccc(CCN2CCC(CCCn3c(COc4ccccc4)nc4c(OCCCN5CCCCC5)cccc43)CC2)cc1	0.191	–
CC(C)CCN1CCC(CCCn2c(COc3ccccc3)nc3c(OCCCN4CCCCC4)cccc32)CC1	0.29	–
O=C(CCN1CCC(CCCn2c(COc3ccccc3)nc3c(OCCCN4CCCCC4)cccc32)CC1)c1ccccc1	0.112	–
C=CCCN1CCC(CCCn2c(COc3ccccc3)nc3c(OCCCN4CCCCC4)cccc32)CC1	0.707	–
CN1CCC(CCCn2c(COc3ccccc3)nc3c(OCCCN4CCCCC4)cccc32)CC1	1.62	–
Ic1ccc(CCN2CCC(CCCn3c(COc4ccccc4)nc4c(OCCCN5CCCCC5)cccc43)CC2)cc1	0.052	Ki (SK-N-MC): 6 nM; inhibition [2]: < 50%; inhibition [3]: < 50%; inhibition [4]: < 50%
c1ccc(OCc2nc3c(OCCCN4CCCCC4)cccc3n2CCCC2CCN(CCC3CCCCC3)CC2)cc1	0.285	Ki (SK-N-MC): 5.2 nM
O=C(CN1CCC(N2CCCCC2)CC1)c1c(COc2ccc(Cl)cc2)n(CCCC2CCCNC2)c2ccccc12 (stereo not given)	0.75	–
c1ccc(OCc2nc3c(OCCCN4CCCCC4)cccc3n2CCCC2CCN(CCCN3CCCCC3)CC2)cc1	0.106	Ki (SK-N-MC): 0.564 nM
C=CCN1CCC(CCCn2c(COc3ccccc3)nc3c(OCCCN4CCCCC4)cccc32)CC1	1.63	–
c1ccc(CCCN2CCC(CCCn3c(COc4ccccc4)nc4c(OCCCN5CCCCC5)cccc43)CC2)cc1	0.361	Ki (SK-N-MC): 3.4 nM
Oc1ccc(CCN2CCC(CCCn3c(COc4ccccc4)nc4c(OCCCN5CCCCC5)cccc43)CC2)cc1	0.313	–
O=C(CCCN1CCC(CCCn2c(COc3ccccc3)nc3c(OCCCN4CCCCC4)cccc32)CC1)c1ccccc1	0.132	–
C(=C/c1ccccc1)/CN1CCC(CCCn2c(COc3ccccc3)nc3c(OCCCN4CCCCC4)cccc32)CC1	0.183	–
CC(C)N1CCC(CCCn2c(COc3ccccc3)nc3c(OCCCN4CCCCC4)cccc32)CC1	1.61	–
c1ccc(OCc2nc3c(OCCCN4CCCCC4)cccc3n2CCCC2CCN(CC3CCCCC3)CC2)cc1	0.393	–
c1ccc(OCc2nc3c(OCCCN4CCCCC4)cccc3n2CCCC2CCNCC2)cc1	4.5	–
CC(C)CN1CCC(CCCn2c(COc3ccccc3)nc3c(OCCCN4CCCCC4)cccc32)CC1	0.829	–
